“Also recorded” adds a separate entry of the source. Read-outs that look alike come from different tables or passages of the source.
Tests used:
human DAT = target: T1, human DAT (Homo sapiens, UniProt Q01959); experiment: DAT uptake SPA in hDAT-CHO cells; format: cell-based
T1 construct: expressed in transfected cells; host or cells: CHO (hDAT-CHO)
Description: Methods-Evaluation of Monoamine Uptake/Transporter Inhibition: Inhibitory activity on DAT function was measured using an uptake assay in a recombinant CHO cell line stably expressing human DAT (hDAT-CHO). Potency was measured in terms of pIC50 by testing for inhibition of [3H]-dopamine uptake in hDAT-CHO cells in a multiwell format SPA.
Briefly, on experiment days, hDAT-CHO cells were detached using Versene and added at a density of approximately 300,000 cells/mL to the SPA Mixture, which contains the following components in Assay Buffer (20 mM HEPES, 145 mM NaCl, 5 mM KCl, 2 mM CaCl2), 1 mM MgCl2, 5.5 mM glucose, 0.01% Pluronic F127, pH 7.3): 0.75 mg/mL SPA Imaging beads (RPNQ0001, PerkinElmer), 10 μM pargyline and 80 nM of [3H]-dopamine (NET673, PerkinEImer). The SPA Mixture was added 20 μL/well to 384 well plates containing 0.1 μL/well of test compound in neat DMSO (11 points of 1:5 serial dilution, 0.5% DMSO final) or 0.1 μL of DMSO (total uptake) or 0.1 μL of the standard inhibitor indatraline (at 1 μM final concentration, as nonspecific uptake). Plates were sealed with a Top-seal A and read using a Microbeta counter (PerkinElmer) after 45 minutes of incubation at room temperature. […] The SPA Mixture was added 20 μL/well to 384 well plates containing 0.1 μL/well of test compound in neat DMSO (11 points of 1:5 serial dilution, 0.5% DMSO final), 0.1 μL of DMSO (total uptake), or 0.1 μL of the standard inhibitor indatraline (1 μM, nonspecific uptake). Plates were sealed with a Top-seal A and read using a Microbeta counter (PerkinElmer) after 120 minutes of incubation at room temperature.
For both tests, the raw experimental data (cpm) were elaborated for the determination of pIC50/IC50 values as % inhibition of specific uptake.

[1] = Intrinsic clearance in human liver microsomes; format: in vitro ADME; details: for microsomal CLint at 0.5 μM: pH 7.4, read-out: Cl (μL/min/mg protein) - Human Microsomes
Description: Methods: The general procedure involved incubating test compounds with liver microsomes and subsequently detecting the compounds to determine intrinsic clearance. Clearance was estimated from the rate of depletion k (min-1), the volume of the incubation V (mL), and the amount of microsomal proteins in the incubation M (mg). Intrinsic clearance is defined by the following equation: Clint=k*V/M.
Values for CLint are expressed as μL/min/mg liver microsomes. Verapamil and dextromethorphan were used as positive controls for CYP3A4 and CYP2D6 isoforms, respectively, to confirm metabolic activity. Stock solutions were prepared in DMSO for therapeutic compounds and positive controls verapamil and dextromethorphan (10 mM for all). Working solutions were prepared by diluting stock in MeOH to reach […]. However, this concentration can be varied, e.g., when the test item is not soluble in the selected solvent.
Prior to experimentation, frozen liver microsomes were thawed in a water bath at 37° C. and kept on ice until use. The microsomes were then diluted with 50 mM potassium phosphate buffer pH 7.4 to a protein concentration of 0.56 mg/mL. To prepare test and control items in final incubation conditions, 5 μL of test compound and positive control working solutions were added to 445 μL of microsomes incubation mixture at 0.56 mg/mL and 50 μL of regenerating system.
As it relates to the automated incubation procedure for microsomes incubation, the following procedure was followed. Briefly, 150 μL of quenching solution (ACN containing an appropriate Internal Standard, i.e. Rolipram and Diclofenac for positive and negative ion mode, respectively) was manually dispensed or dispensed by using the Hamilton system in each well of 96 deep well 1 mL plates. Next, 800-1000 μL-aliquots of NADPH regenerating system were pre-warmed at 37° C. for 5 minutes. 5 μL of 50 µM test items and control were added to 445 μL of the 0.56 mg/mL microsomes solution, and the incubation mixture was pre-warmed in a 96 deep well 2 mL plate (incubation plate) at 37° C. for 5 minutes. The incubation reactions were initiated by adding 50 μL of pre-warmed NADPH regenerating system to the incubation mixtures.
50 μL-aliquots were sampled from incubation mixtures at: 0, 3, 10, 15, 30, and 45 minutes. The samples were centrifuged at 3,000 rpm for 10 minutes and further diluted in order to optimize the analytical condition prior to the LC MS/MS or Rapid Fire-MS/MS analysis. Incubations of test items were run in duplicate (n=2) with a single positive control (n=1). For sample analysis, an LC-MS/MS system was used to monitor the test samples/control to internal standard peak area ratios as representative of the test or control item's concentration. Data from test item incubation was processed to give mean values where applicable. Metabolic stability was calculated from the ratio of peak area of the remaining test or control item with internal standard versus time.
Peak areas for test and control items were integrated using Integrator Software from Agilent or Analyst or MultiQuant Software from AB SciexTM and were exported to XLFit or Morphit (The Edge), which were designed to calculate in vitro metabolic stability parameters. The integrated peak areas of the test and control items at the selected time points were divided by the respective peak areas of the IS, and the percent of parent remaining was calculated by normalizing the peak area ratio of parent to IS at 0 min. Observed rate constant (kobs) for parent degradation was calculated by determining the slope of the line of the graph of the natural log of percentage parent remaining versus time of incubation. This was scaled for the protein in the incubation relative to that in the liver.

[2] = [3H]-dopamine uptake, hDAT-CHO cells, read-out: DAT Uptake SPA (pIC50) (converted)

T1 sequence (Q01959 whole entry): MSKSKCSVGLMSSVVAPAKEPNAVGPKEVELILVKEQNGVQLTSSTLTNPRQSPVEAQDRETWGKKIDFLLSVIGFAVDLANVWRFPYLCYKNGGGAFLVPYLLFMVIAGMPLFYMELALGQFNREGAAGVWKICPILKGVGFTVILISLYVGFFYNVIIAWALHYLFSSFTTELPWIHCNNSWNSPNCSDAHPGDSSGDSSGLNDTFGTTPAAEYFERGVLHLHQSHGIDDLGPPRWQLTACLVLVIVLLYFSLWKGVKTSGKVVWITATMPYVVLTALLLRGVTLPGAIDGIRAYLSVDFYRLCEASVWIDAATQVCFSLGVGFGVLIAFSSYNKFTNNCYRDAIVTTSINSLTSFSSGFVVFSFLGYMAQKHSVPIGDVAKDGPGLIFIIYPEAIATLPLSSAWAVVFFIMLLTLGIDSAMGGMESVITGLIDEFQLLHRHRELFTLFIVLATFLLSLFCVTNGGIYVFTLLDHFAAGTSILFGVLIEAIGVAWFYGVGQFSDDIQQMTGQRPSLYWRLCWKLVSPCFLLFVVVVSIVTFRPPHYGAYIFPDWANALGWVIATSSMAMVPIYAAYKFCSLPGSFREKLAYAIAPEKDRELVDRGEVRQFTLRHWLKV

In the case of `CNC(C)Cc1ccc2c(c1)OCO2` (stereo not drawn) [MDMA], the “DAT Uptake SPA (pIC50)” value (human DAT; [3H]-dopamine uptake, hDAT-CHO cells) is reported as 5.7 and the “Cl (μL/min/mg protein) - Human Microsomes” value (“Cl (μL/min/mg protein)” below) [1] is reported as 41 μL/min/mg protein.

For `COC(=O)c1ccc2c(c1)CC(N)C2` (stereo not drawn) [CMP-405, 2-aminoindane-5-methylcarboxylate], the IC50 (human DAT; [2]) was 20 µM, the “Cl (μL/min/mg protein)” value [1] was “greater clearance in human microsomes relative to MDMA” and the microsomal CLint at 0.5 μM [1] was 137 µL/min/mg.

With `COc1ccc2c(c1)CC(N)C2` (stereo not drawn) [MEAI, 5-methoxy-2-aminoindane] the IC50 (human DAT) was 50.1 µM and the microsomal CLint at 0.5 μM [1] was 137 µL/min/mg.

In the case of `COC(=O)c1cc2c(cc1OC)CC(N)C2` (stereo not drawn) [CMP-401], the IC50 (human DAT; [2]) is reported as 100 µM, the “Cl (μL/min/mg protein)” value [1] is reported as “greater clearance in human microsomes relative to MDMA” and the microsomal CLint at 0.5 μM [1] is reported as 87.2 µL/min/mg.

In the case of `COC(=O)COc1ccc2c(c1)CC(N)C2` (stereo not drawn) [CMP-402], the IC50 (human DAT; [2]) is reported as 100 µM, the “Cl (μL/min/mg protein)” value [1] is reported as “greater clearance in human microsomes relative to MDMA; also recorded: greatest clearance” and the microsomal CLint at 0.5 μM [1] is reported as 758 µL/min/mg.

In the case of `COc1cc2c(cc1C)CC(N)C2` (stereo not drawn) [MMAI, 5-methoxy-6-methyl-2-aminoindane], the IC50 (human DAT) is reported as 50.1 µM and the microsomal CLint at 0.5 μM [1] is reported as 46.7 µL/min/mg.

From patent US20260159474A1, “Aminoindane Compounds and Compositions and Methods of Their Therapeutic Use” (Solvonis Therapeutics Ireland Holdings Limited, priority 2021, published 2026)
